Assay results: ChEMBL document CHEMBL1201862, “PubChem BioAssay data set” (2004)
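These data come from cells grown in 96-well plates and exposed to compound for 48 hours at five concentrations. At the GI50, growth is halved.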 Active and inactive are the calls of the source. Cut-off read from the data, not from the text of the source: active = GI50 up to about 1.1 µM and inactive = higher.

Assays:
Assay in all cases: NCI tumour cell line growth inhibition, 48 h
786-0 = test system: 786-0
A498 = test system: A498
BT-549 = test system: BT-549
HCT-116 = test system: HCT-116
HCT-15 = test system: HCT-15
HT-29 = test system: HT-29
IGROV-1 = test system: IGROV-1
K562 = test system: K562
M14 = test system: M14
MDA-MB-435 = test system: MDA-MB-435
NCI-H23 = test system: NCI-H23
OVCAR-3 = test system: OVCAR-3
OVCAR-8 = test system: OVCAR-8
RPMI-8226 = test system: RPMI-8226
SK-OV-3 = test system: SK-OV-3
T47D = test system: T47D
UO-31 = test system: UO-31
LOX IMVI = test system: LOX IMVI
SK-MEL-2 = test system: SK-MEL-2

SMILES: O=C(O)c1cnc2[nH]ccn2c1=O
- GI50 (786-0): > 100 µM (inactive)
- GI50 (A498): > 100 µM (inactive)
- GI50 (BT-549): > 100 µM (inactive)
- GI50 (HCT-116): > 100 µM (inactive)
- GI50 (HCT-15): > 100 µM
- GI50 (HT-29): > 100 µM (inactive)
- GI50 (IGROV-1): > 100 µM (inactive)
- GI50 (K562): > 100 µM (inactive)
- GI50 (M14): > 100 µM (inactive)
- GI50 (MDA-MB-435): > 100 µM (inactive)
- GI50 (NCI-H23): > 100 µM (inactive)
- GI50 (OVCAR-3): > 100 µM (inactive)
- GI50 (OVCAR-8): > 100 µM (inactive)
- GI50 (RPMI-8226): > 100 µM (inactive)
- GI50 (SK-OV-3): > 100 µM (inactive)
- GI50 (T47D): > 100 µM (inactive)
- GI50 (UO-31): > 100 µM (inactive)

SMILES: COC(=O)c1ccccc1C1CN=NC12Cc1cc(C)c(C)cc1C2=O (stereo not drawn)
- GI50 (786-0): 63.1 µM (inactive)
- GI50 (A498): 25.8 µM (inactive)
- GI50 (BT-549): 65.9 µM (inactive)
- GI50 (HCT-116): 33.4 µM (inactive)
- GI50 (HCT-15): 32.7 µM
- GI50 (HT-29): 29.4 µM (inactive)
- GI50 (IGROV-1): 55.2 µM (inactive)
- GI50 (K562): 20 µM (inactive)
- GI50 (LOX IMVI): 20.4 µM (inactive)
- GI50 (M14): 40.7 µM (inactive)
- GI50 (MDA-MB-435): 33.4 µM (inactive)
- GI50 (NCI-H23): 29.1 µM (inactive)
- GI50 (OVCAR-3): 27.5 µM (inactive)
- GI50 (OVCAR-8): 54.6 µM (inactive)
- GI50 (SK-MEL-2): 49.7 µM (inactive)
- GI50 (SK-OV-3): 40.3 µM (inactive)
- GI50 (T47D): 31.8 µM (inactive)
- GI50 (UO-31): 30.3 µM (inactive)

SMILES: O=C1C[C@H](c2ccccc2)O[C@@H](c2ccccc2)C1
- GI50 (786-0): 88.1 µM (inactive)
- GI50 (BT-549): > 100 µM (inactive)
- GI50 (HCT-116): > 100 µM (inactive)
- GI50 (HCT-15): > 100 µM
- GI50 (HT-29): > 100 µM (inactive)
- GI50 (IGROV-1): > 100 µM (inactive)
- GI50 (K562): 26.9 µM (inactive)
- GI50 (LOX IMVI): > 100 µM (inactive)
- GI50 (M14): > 100 µM (inactive)
- GI50 (MDA-MB-435): > 100 µM (inactive)
- GI50 (NCI-H23): > 100 µM (inactive)
- GI50 (OVCAR-3): > 100 µM (inactive)
- GI50 (OVCAR-8): > 100 µM (inactive)
- GI50 (RPMI-8226): > 100 µM (inactive)
- GI50 (SK-MEL-2): > 100 µM (inactive)
- GI50 (SK-OV-3): > 100 µM (inactive)
- GI50 (T47D): > 100 µM (inactive)
- GI50 (UO-31): > 100 µM (inactive)

SMILES: Cn1ccc(C(=O)NCCCCCNC(=O)c2ccn(C)c(=O)c2O)c(O)c1=O
- GI50 (786-0): > 100 µM (inactive)
- GI50 (A498): > 100 µM (inactive)
- GI50 (BT-549): > 100 µM (inactive)
- GI50 (HCT-116): > 100 µM (inactive)
- GI50 (HCT-15): > 100 µM
- GI50 (HT-29): > 100 µM (inactive)
- GI50 (LOX IMVI): > 100 µM (inactive)
- GI50 (MDA-MB-435): > 100 µM (inactive)
- GI50 (NCI-H23): > 100 µM (inactive)
- GI50 (OVCAR-8): > 100 µM (inactive)
- GI50 (SK-MEL-2): > 100 µM (inactive)
- GI50 (T47D): > 100 µM (inactive)
- GI50 (UO-31): > 100 µM (inactive)

SMILES: O=C1c2scc(-c3ccccc3)c2-n2cccc21
- GI50 (786-0): 13.9 µM (inactive)
- GI50 (A498): 1.72 µM (inactive)
- GI50 (BT-549): 25.9 µM (inactive)
- GI50 (HCT-116): 13.4 µM (inactive)
- GI50 (HCT-15): 34.1 µM
- GI50 (HT-29): 10.9 µM (inactive)
- GI50 (IGROV-1): 2.59 µM (inactive)
- GI50 (LOX IMVI): 14.4 µM (inactive)
- GI50 (M14): 18 µM (inactive)
- GI50 (MDA-MB-435): 14.5 µM (inactive)
- GI50 (OVCAR-3): 16.3 µM (inactive)
- GI50 (OVCAR-8): 13.5 µM (inactive)
- GI50 (RPMI-8226): 5 µM (inactive)
- GI50 (SK-MEL-2): 12.2 µM (inactive)
- GI50 (SK-OV-3): 19.3 µM (inactive)
- GI50 (T47D): 17.7 µM (inactive)
- GI50 (UO-31): 22.5 µM (inactive)
